Data on one compound can be found in publication PMC5908784, “Extracellular loops 2 and 3 of the calcitonin receptor selectively modify agonist binding and efficacy” (Biochemical Pharmacology, 2018).

The assay deals with T1, hCTR C289A (Homo sapiens, UniProt P30988, C289A).
T1 construct: c-Myc (N); expressed in transfected cells
T1 sequence (P30988 25-474 C289A): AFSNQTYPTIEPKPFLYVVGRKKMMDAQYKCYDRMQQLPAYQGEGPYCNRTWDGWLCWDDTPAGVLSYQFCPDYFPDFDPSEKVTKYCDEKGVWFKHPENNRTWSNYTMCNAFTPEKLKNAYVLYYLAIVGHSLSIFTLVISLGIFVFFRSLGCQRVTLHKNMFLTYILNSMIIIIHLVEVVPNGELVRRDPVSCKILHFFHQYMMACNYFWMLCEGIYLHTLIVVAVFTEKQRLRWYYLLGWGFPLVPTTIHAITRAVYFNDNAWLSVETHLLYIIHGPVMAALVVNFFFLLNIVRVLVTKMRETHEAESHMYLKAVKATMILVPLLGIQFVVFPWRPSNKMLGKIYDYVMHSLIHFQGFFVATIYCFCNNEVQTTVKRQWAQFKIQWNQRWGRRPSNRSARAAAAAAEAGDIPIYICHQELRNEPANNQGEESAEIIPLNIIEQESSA
The experiment in a line: IP1 accumulation. Format: cell-based. The note with it: IP1 maximal response, mean ± S.E.M., SEM. The method, boiled down: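 Concentration-response curves were fitted to a 3-parameter logistic model to estimate EC50 and Emax. Cells had been exposed to ligand for 60 min with LiCl, and lysate IP1 determined by HTRF, with normalization to 100 μM ATP.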

Structures are written as SMILES.

A word on the Emax: it is the greatest response seen or fitted, relative to the assay's reference. Take `CC(C)C[C@H](NC(=O)[C@H](CCCCN)NC(=O)CNC(=O)[C@H](CC(C)C)NC(=O)[C@@H](NC(=O)[C@@H]1CSSC[C@H](N)C(=O)N[C@@H](CO)C(=O)N[C@@H](CC(N)=O)C(=O)N[C@@H](CC(C)C)C(=O)N[C@@H](CO)C(=O)N[C@@H]([C@@H](C)O)C(=O)N1)C(C)C)C(=O)N[C@@H](CO)C(=O)N[C@@H](CCC(N)=O)C(=O)N[C@@H](CCC(=O)O)C(=O)N[C@@H](CC(C)C)C(=O)N[C@@H](Cc1c[nH]cn1)C(=O)N[C@@H](CCCCN)C(=O)N[C@@H](CC(C)C)C(=O)N[C@@H](CCC(N)=O)C(=O)N[C@H](C(=O)N[C@@H](Cc1ccc(O)cc1)C(=O)N1CCC[C@H]1C(=O)N[C@@H](CCCNC(=N)N)C(=O)N[C@H](C(=O)N[C@@H](CC(N)=O)C(=O)N[C@H](C(=O)NCC(=O)N[C@@H](CO)C(=O)NCC(=O)N[C@H](C(=O)N1CCC[C@H]1C(N)=O)[C@@H](C)O)[C@@H](C)O)[C@@H](C)O)[C@@H](C)O` [sCT]: the Emax came to 42 ± 4%.
